Measured values from patent publication US7563813B2, “Iminothiazolidinone derivatives as SFRP-1 antagonists” (Wyeth, priority 2005, dated 2009).

Molecular target: T1, hSFRP-1 (Homo sapiens, UniProt Q8N474)
T1 construct: expressed in transfected cells; host or cells: U2OS osteosarcoma cells (ATCC, HTB 96), transient co-transfection with Wnt 3, Wnt3A or Wnt 1, 16x TCF-tk-Luciferase reporter and CMV-beta-gal
T1 sequence (Q8N474 32-314): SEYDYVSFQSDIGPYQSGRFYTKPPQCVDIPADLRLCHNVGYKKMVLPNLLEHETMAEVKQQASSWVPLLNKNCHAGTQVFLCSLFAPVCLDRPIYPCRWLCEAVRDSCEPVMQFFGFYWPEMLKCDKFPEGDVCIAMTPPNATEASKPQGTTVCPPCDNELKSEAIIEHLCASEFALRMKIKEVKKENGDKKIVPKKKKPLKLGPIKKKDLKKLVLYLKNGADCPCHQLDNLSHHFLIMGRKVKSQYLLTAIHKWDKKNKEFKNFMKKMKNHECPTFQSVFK
Experiment: Cell-Based Assay for In Vitro Measurement of SFRP-1/SARP2 Antagonist Activity (U2OS cells, 16x TCF-tk-Luciferase reporter, Wnt + hSFRP-1 co-transfection)
Details: initial single dose screening at 10 μM; for fold induction at 10 µM: luciferase reporter activity, fold induction over SFRP-1 control; for Ratio: ratio not defined
Description: Cell-Based Assay for In Vitro Measurement of SFRP-1/SARP2 Antagonist Activity
The following cell-based assay can be used to identify inhibitors of SFRP-1.
The osteosarcoma cell line, U2OS (ATCC, HTB 96), was passaged twice a week with growth medium (McCoy's SA medium containing 10% (v/v) fetal calf serum, 2 mM GlutaMAX-1, and 1% (v/v) Penicillin-Streptomycin). The cells were maintained in vented flasks at 37° C. inside a 5% CO2/95% humidified air incubator. One day prior to transfection, the cells were plated with growth medium at 25,000 cells/well into 96-well plates and incubated at 37° C. overnight.
The growth medium was removed, and the cells were washed once with OPTIMEM I (Gibco-BRL) medium (100 μl/well) to remove the serum and antibiotics. The wash medium was removed, and the cells were re-fed with OPTI-MEM I medium (100 μl/well). For each well of cells to be transfected, the following DNA's were diluted together in 25 μl OPTI-MEM I medium: 0.1 μg 16× TCF-tk-Luciferase reporter, 0.02 μg Wnt 3, Wnt3A, Wnt 1 or empty vector (Upstate Biotechnology), 0.075 μg hSFRP-1 or empty vector (pcDNA3.1, Invitrogen), and 0.025 μg CMV-®gal (Clonetech). For each well of cells to be transfected, 1 μl of Lipofectamine 2000 reagent (Invitrogen) was diluted in 25 μl OPTI-MEM I medium and incubated at room temperature for 5 minutes. The diluted DNA's were then combined with the diluted Lipofectamine 2000 (LF2000), and the mixture was incubated at room temperature for 20 minutes. Fifty μl of the DNA-LF 2000 mixture was added to each well, and the plate(s) were incubated at 37° C. in a 5% CO2/95% humidified air incubator for 4 hours. The cells were washed once with 150 μl/well of experimental medium (phenol red-free RPMI Medium 1640 containing 2% fetal bovine serum, 2 mM GlutaMAX-1, and 1% Penicillin-Streptomycin). Finally, the cells were treated overnight at 37° C. with 200 μl/well of experimental medium containing either vehicle (typically DMSO) or diluted compound in replicates of 8 wells/compound.
Initial single dose screening of test compounds was done at 10 μM.
Dose-response experiments were initially performed with the compounds in log increases from 1-10,000 nM. From these dose-response curves, EC50 values were generated.
After treatment, the cells were washed twice with 150 μl/well of PBS without calcium or magnesium and were lysed with 50 μl/well of 1× cell culture lysis reagent (Promega Corporation) on a shaker at room temperature for 30 minutes. Thirty μl aliquots of the cell lysates were transferred to 96-well luminometer plates, and luciferase activity was measured in a MicroLumat PLUS luminometer (EG&G Berthold), or a Victor (PerkinElmer Life Sciences) using […] of luciferase substrate (Promega Corporation). Following the injection of substrate, luciferase activity was measured for 10 seconds after a 1.6 second delay. Similarly, 10 μl aliquots of the cell lysates were transferred to separate 96-well luminometer plates, and 50 μl of Galacton chemiluminescent substrate (Tropix) was added to each well. The plates were covered and incubated on a rotary shaker at room temperature for one hour. ®gal activity was measured in a MicroLumat PLUS luminometer or Victor using 100 μl/well of Light Emission Accelerator (Tropix). Following the injection of the accelerator, ®gal activity was measured for 10 seconds after a 1.6 second delay. The luciferase and ®gal activity data were transferred from the luminometer to a PC and analyzed using the SAS/Excel program. After the luciferase activity was normalized to ®gal, the SAS/Excel program was used to determine the mean and standard deviation of each treatment, to analyze the data for statistical significance, and to determine EC50 values.
As an alternative to co-transfection in a 96 well plate, the U2OS cells were transfected in T225 flasks and the transfected cells were frozen. The frozen cells were thawed and plated on a 96 well plate and the assay was carried out as detailed above. […]

Row | SMILES | fold induction at 10 µM | Ratio
1 | COC(=O)c1cc(-c2ccccc2)sc1NC(=O)CC1SC(=N)NC1=O (stereo not shown) [Example 56, methyl 2-{[(2-imino-4-oxo-1,3-thiazolidin-5-yl)acetyl]amino}-5-phenylthiophene-3-carboxylate] | 0.9 | 0.9
2 | COC(=O)c1cc(-c2ccc(Cl)cc2)sc1NC(=O)CC1SC(=N)NC1=O (stereo not shown) [Example 57, methyl 5-(4-chlorophenyl)-2-{[(2-imino-4-oxo-1,3-thiazolidin-5-yl)acetyl]amino}thiophene-3-carboxylate] | 0.9 | 0.8
3 | CCOC(=O)c1c(NC(=O)CC2SC(=N)NC2=O)sc(-c2ccccc2)c1C (stereo not shown) [Example 58, ethyl 2-{[(2-imino-4-oxo-1,3-thiazolidin-5-yl)acetyl]amino}-4-methyl-5-phenylthiophene-3-carboxylate] | 0.7 | 0.7
4 | CCOC(=O)c1c(NC(=O)CC2SC(=N)NC2=O)sc(Br)c1CBr (stereo not shown) [Example 59, Ethyl 5-bromo-4-(bromomethyl)-2-{[(2-imino-4-oxo-1,3-thiazolidin-5-yl)acetyl]amino}thiophene-3-carboxylate] | 1.1 | 1.4
5 | CCOC(=O)c1c(NC(=O)CC2SC(=N)NC2=O)sc(Br)c1CNc1ccccc1 (stereo not shown) [Example 60, Ethyl 4-(anilinomethyl)-5-bromo-2-{[(2-imino-4-oxo-1,3-thiazolidin-5-yl)acetyl]amino}thiophene-3-carboxylate] | 2.7 | 2.4
6 | CCOC(=O)c1c(NC(=O)CC2SC(=N)NC2=O)sc(Br)c1CN(C)c1ccc(Cl)cc1 (stereo not shown) [Example 61, ethyl 5-bromo-4-{[(4-chlorophenyl)(methyl)amino]methyl}-2-{[(2-imino-4-oxo-1,3-thiazolidin-5-yl)acetyl]amino}thiophene-3-carboxylate] | 0.7 | 1.0
7 | CCOC(=O)c1c(NC(=O)CC2SC(=N)NC2=O)sc(Br)c1CNc1ccc(F)cc1 (stereo not shown) [Example 62, ethyl 5-bromo-4-{[(4-fluorophenyl)amino]methyl}-2-{[(2-imino-4-oxo-1,3-thiazolidin-5-yl)acetyl]amino}thiophene-3-carboxylate] | 2 | 2.2
8 | CCOC(=O)c1c(NC(=O)CC2SC(=N)NC2=O)sc(Br)c1CNC1CCCC1 (stereo not shown) [Example 63, ethyl 5-bromo-4-[(cyclopentylamino)methyl]-2-{[(2-imino-4-oxo-1,3-thiazolidin-5-yl)acetyl]amino}thiophene-3-carboxylate] | 1.5 | 1.1
